Tested on: human patient-derived xenograft (PDX) derived from a human ovarian tumor (CTG-1180, Champions Oncology)
Assay: In vivo xenograft efficacy (human ovarian tumor PDX) in tumor-bearing mice
Design: species or system Athymic Nude-Foxn1nu mice
Description: A nanoparticle composition comprising Compound 1 and albumin from Example 2 was tested in an in vivo xenograft efficacy model in tumor-bearing mice. Athymic Nude-Foxn1nu mice were implanted subcutaneously with a human patient-derived xenograft (PDX) derived from a human ovarian tumor (CTG-1180, Champions Oncology). Tumors were allowed grow to ˜200 cubic mm before commencement of treatment (day 0). Lyophilized nanoparticle formulations of Compound 1 were rehydrated in 5% dextrose in sterile water (D5W) immediately prior to dosing. Mice were then dosed intravenously with various concentrations of gemcitabine, nanoparticle formulation of Compound 1, or vehicle control (dissolved directly in D5W and dosed in mg of gemcitabine/compound 1 per kg of mouse body weight abbreviated as mpk) once weekly for 4 weeks (mice were dosed on day 0, 7, 14, and 21 with no treatments thereafter). […] Tumor volume was assessed by caliper measurement using the following formula: Tumor volume=width^2×length×0.52. Tumor growth inhibition (TGI) at day 28 was assessed using the following formula: […]. […]

With `Nc1ccn([C@@H]2O[C@H](CO)[C@@H](O)C2(F)F)c(=O)n1` [gemcitabine, 2′,2′-difluoro-2′-deoxycytidine] the “Tumor growth inhibition (TGI) at day 28” value (40 mpk (152 μmol/kg) intravenously once weekly for 4 weeks (day 0, 7, 14, 21)) was 88% and the “Tumor growth inhibition (TGI) at day 28” value (100 mpk (380 μmol/kg) intravenously once weekly for 4 weeks (day 0, 7, 14, 21)) was 98%.

— US11306399B2, “Nanoparticle compositions” (JANUARY THERAPEUTICS, INC., priority 2019, dated 2022)
